Assay results reported in patent publication US8629149B2, “Oxopiperazine derivatives for the treatment of pain and epilepsy” (Zalicus Pharmaceuticals Ltd., priority 2009, dated 2014).

What was measured:
SNL L5/L6 rats = assay: L5/L6 spinal nerve ligation (SNL) Chung pain model, tactile allodynia (von Frey); format: in vivo, rat
Text: The Spinal Nerve Ligation is an animal model representing peripheral nerve injury generating a neuropathic pain syndrome. In this model experimental animals develop the clinical symptoms of tactile allodynia and hyperalgesia. L5/L6 Spinal nerve ligation (SNL) injury was induced using the procedure of Kim and Chung (Kim et al., Pain 50:355-363 (1992)) in male Sprague-Dawley rats (Harlan; Indianapolis, Ind.) weighing 200 to 250 grams.
Anaesthesia was induced with 2% isofluorane in O2 at 2 L/min and maintained with 0.5% isofluorane in O2. Rats were then shaved and aseptically prepared for surgeries. A 2 cm paraspinal incision was made at the level of L4-S2. L4/L5 was exposed by removing the transverse process above the nerves with a small rongeur. The L5 spinal nerve is the larger of the two visible nerves below the transverse process and lies closest to the spine. The L6 spinal nerve is located beneath the corner of the slope bone. A home-made glass Chung rod was used to hook L5 or L6 and a pre-made slip knot of 4.0 silk suture was placed on the tip of the rod just above the nerve and pulled underneath to allow for the tight ligation. The L5 and L6 spinal nerves were tightly ligated distal to the dorsal root ganglion. The incision was closed, and the animals were allowed to recover for 5 days.
Sham control rats underwent the same operation and handling as the experimental animals, but without SNL.
Prior to initiating drug delivery, baseline behavioural testing data is obtained. At selected times after infusion of the Test or Control Article behavioural data can then be collected again.
The assessment of tactile allodynia consisted of measuring the withdrawal threshold of the paw ipsilateral to the site of nerve injury in response to probing with a series of calibrated von Frey filaments (innocuous stimuli). Animals were acclimated to the suspended wire-mesh cages for 30 min before testing. Each von Frey filament was applied perpendicularly to the plantar surface of the ligated paw of rats for 5 sec. A positive response was indicated by a sharp withdrawal of the paw. For rats, the first testing filament is 4.31. Measurements were taken before and after administration of test articles. […] The protocol was repeated until three changes in behaviour were determined (“up and down” method) (Chaplan et al., J. Neurosci. Methods 53:55-63 (1994)). The 50% paw withdrawal threshold was determined as (10^[Xf+kδ])/10,000, where Xf=the value of the last von Frey filament employed, k=Dixon value for the positive/negative pattern, and δ=the logarithmic difference between stimuli. The cut-off values for rats were no less than 0.2 g and no higher than 15 g (5.18 filament); for mice no less than 0.03 g and no higher than 2.34 g (4.56 filament). A significant drop of the paw withdrawal threshold compared to the pre-treatment baseline is considered tactile allodynia.
Rat SNL tactile allodynia were tested for Compounds 1-4 and 9-12 at 60 minutes compared to baseline and post-SNL. […] FIG. 1 is a plot of the antiallodynic effects of compound 4 (i.p.) tested in SNL L5/L6 rats using von Frey at three different doses, namely 3, 10 and 30 mpk, compared to vehicle alone. […] Rat SNL tactile allodynia were tested at 1, 2 and 4 hours after drug treatment (Table 6).

mice = assay: Mouse rotarod assay; format: in vivo
Method: To assess a compound's undesirable side effects (toxicity), animals were monitored for overt signs of impaired neurological or muscular function. In mice, the rotarod procedure (Dunham and Miya, J. Am. Pharmacol. Assoc. 46:208-209 (1957)) is used to disclose minimal muscular or neurological impairment (MMI). When a mouse is placed on a rod that rotates at a speed of 6 rpm, the animal can maintain its equilibrium for long periods of time. The animal is considered toxic if it falls off this rotating rod three times during a […].

[1] = target: T1, Cav3.2 T-type Ca2+ channels expressed in HEK cells (Homo sapiens, UniProt O95180); assay: Cav3.2 voltage-clamp electrophysiological assay; format: cell-based; conditions: Cav3.2 in HEK cells
T1 construct: expressed in transfected cells; host or cells: HEK cells
Text: Prior to recording currents from Cav3.2 T-type Ca^2+ channels expressed in HEK cells, the culture media was replaced with extracellular solution (ECS) containing (in mM): 142 CsCl, 10 D-glucose, 2 CaCl2, 1 MgCl2, 10 HEPES, pH adjusted to 7.4 with CsOH. Borosilicate glass patch pipettes, pulled on a P-97 micropipette puller (Sutter Instruments, Novato, Calif.) with typical resistances of 2-4 MW, were backfilled with intracellular solution containing (in mM): 126.5 Cs-methanesulphonate, 2 MgCl2, 10 HEPES, 11 EGTA, 2 Na-ATP, pH adjusted to 7.3 CsOH. […] were recorded in the whole-cell configuration at room temperature (˜21° C.) using an Axopatch 200B (Molecular Devices, Sunnyvale, Calif.) patch-clamp amplifier. Recordings were low-pass filtered at 1 kHz (−3 dB 4-pole Bessel filter), digitized at 2 kHz with a Digidata 1322A interface (Molecular Devices), and acquired using pClamp 9.2 (Molecular Devices). No leak subtraction was used. Test compounds, prepared as 30 mM stock solutions in DMSO and diluted in extracellular buffer, were applied through a gravity driven multi-barrelled array of capillaries (24 gauge) connected to reservoirs controlled by solenoid valves. The effects of compounds on Cav3.2 slow and fast inactivation were evaluated using four different voltage protocols. The voltage dependence of fast and slow channel inactivation was examined using a two pulse protocol. Data were analyzed and fitted using OriginPro v.7.5 (OriginLab, Northampton, Mass.) software.

[2] = voltage-dependence of half inactivation

T1 sequence (O95180 whole entry): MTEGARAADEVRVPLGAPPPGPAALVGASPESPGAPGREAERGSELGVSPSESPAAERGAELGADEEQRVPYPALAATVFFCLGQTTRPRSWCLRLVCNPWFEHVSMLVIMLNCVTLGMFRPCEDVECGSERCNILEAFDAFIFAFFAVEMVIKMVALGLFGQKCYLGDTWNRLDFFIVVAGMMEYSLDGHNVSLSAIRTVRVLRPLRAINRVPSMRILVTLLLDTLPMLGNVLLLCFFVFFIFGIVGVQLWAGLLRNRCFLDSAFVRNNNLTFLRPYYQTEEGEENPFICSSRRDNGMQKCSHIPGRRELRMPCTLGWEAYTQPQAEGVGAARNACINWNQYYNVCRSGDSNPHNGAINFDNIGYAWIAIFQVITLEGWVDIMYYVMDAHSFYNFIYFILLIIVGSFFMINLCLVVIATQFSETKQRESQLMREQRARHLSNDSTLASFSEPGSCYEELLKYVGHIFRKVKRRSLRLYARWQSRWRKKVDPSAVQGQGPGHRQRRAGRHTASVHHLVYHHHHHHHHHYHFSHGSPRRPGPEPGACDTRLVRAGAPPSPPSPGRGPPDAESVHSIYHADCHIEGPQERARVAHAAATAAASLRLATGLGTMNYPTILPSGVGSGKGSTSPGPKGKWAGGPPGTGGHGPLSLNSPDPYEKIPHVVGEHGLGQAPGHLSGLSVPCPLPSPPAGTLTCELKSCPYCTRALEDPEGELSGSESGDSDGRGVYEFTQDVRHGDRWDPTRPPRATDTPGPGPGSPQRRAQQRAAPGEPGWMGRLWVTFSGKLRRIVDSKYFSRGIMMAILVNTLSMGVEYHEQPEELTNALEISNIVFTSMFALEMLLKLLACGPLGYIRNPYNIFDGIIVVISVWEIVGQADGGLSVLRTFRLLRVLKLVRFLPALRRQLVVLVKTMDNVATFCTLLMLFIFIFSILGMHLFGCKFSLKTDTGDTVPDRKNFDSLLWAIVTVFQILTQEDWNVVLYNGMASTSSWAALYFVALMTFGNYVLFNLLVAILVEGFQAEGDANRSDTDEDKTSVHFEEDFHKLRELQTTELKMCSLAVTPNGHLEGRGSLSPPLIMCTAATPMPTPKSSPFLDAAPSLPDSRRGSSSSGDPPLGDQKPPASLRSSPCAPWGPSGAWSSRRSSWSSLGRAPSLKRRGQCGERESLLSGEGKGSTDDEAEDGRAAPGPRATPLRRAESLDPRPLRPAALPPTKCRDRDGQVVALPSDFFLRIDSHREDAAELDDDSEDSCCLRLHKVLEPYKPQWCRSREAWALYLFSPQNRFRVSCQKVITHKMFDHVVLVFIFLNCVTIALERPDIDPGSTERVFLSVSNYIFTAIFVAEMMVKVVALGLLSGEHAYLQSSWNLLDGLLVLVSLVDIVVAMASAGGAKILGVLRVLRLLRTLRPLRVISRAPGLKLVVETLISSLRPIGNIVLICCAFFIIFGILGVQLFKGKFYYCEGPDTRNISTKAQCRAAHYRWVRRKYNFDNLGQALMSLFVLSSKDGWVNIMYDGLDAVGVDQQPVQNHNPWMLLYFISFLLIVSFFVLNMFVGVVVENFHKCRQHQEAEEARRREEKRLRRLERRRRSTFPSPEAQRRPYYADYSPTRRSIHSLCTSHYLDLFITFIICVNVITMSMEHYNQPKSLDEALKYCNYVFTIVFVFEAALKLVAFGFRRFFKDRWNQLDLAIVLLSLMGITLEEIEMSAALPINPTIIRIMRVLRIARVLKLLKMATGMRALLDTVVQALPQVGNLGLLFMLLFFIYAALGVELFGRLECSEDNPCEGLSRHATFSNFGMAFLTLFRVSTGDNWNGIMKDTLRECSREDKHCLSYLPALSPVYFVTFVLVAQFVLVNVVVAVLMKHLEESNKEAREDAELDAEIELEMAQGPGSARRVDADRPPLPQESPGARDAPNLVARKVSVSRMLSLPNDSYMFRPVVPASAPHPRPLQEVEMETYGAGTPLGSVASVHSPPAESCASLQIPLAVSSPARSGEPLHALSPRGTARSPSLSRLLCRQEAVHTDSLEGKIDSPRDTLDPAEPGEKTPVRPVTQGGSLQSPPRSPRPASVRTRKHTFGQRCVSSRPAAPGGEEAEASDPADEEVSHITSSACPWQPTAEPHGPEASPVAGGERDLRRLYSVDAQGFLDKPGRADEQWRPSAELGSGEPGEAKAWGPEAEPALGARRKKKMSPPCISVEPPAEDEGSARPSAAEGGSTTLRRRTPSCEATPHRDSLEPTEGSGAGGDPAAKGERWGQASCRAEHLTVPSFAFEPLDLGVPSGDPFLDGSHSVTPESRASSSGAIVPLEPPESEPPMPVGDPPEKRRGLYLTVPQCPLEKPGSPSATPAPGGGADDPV

Structure (SMILES)	Rat SNL Tactile Allodynia (% Antiallodynia) (SNL L5/L6 rats; 1 hour after drug treatment) [%]	Rat SNL tactile allodynia, anti-allodynia (statement) (SNL L5/L6 rats; compared to baseline and post-SNL)	Antiallodynic effects compared to vehicle (FIG. 1) (SNL L5/L6 rats; i.p., 3, 10 and 30 mpk, 60 minutes after drug administration, von Frey)	% Impaired (mice; 0.25 hr) [%]	% Impaired (mice; 0.5 hr) [%]	% Impaired (mice; 1 hr) [%]	% Impaired (mice; 2 hr) [%]	% Impaired (mice; 4 hr) [%]	τ recovery from slow inactivation [1] [ms]	Fraction of current recovered at 5.1 s interval [1]	Rat SNL Tactile Allodynia (% Antiallodynia) (SNL L5/L6 rats; 2 hours after drug treatment) [%]	Rat SNL Tactile Allodynia (% Antiallodynia) (SNL L5/L6 rats; 4 hours after drug treatment) [%]	τ recovery from fast inactivation (ms) [1]	τ recovery from slow inactivation (ms) [1]	Fraction current remaining at −40 mV ([1]; at −40 mV)	V1/2 fast inactivation (mV) [1, 2] [mV]	V1/2 slow inactivation (mV) [1, 2] [mV]
O=C1CN(C(=O)CC(c2ccccc2)c2ccccc2)CCN1 [Compound 4, 4-(3,3-diphenylpropanoyl)piperazin-2-one]	92	significant antiallodynia	statistically significant antiallodynic effects	0	0	0	0	0	495	0.98							
O=C1CN(C(=O)CC(c2ccc(Cl)cc2)c2ccc(Cl)cc2)CCN1 [Compound 3, 4-(3,3-bis(4-chlorophenyl)propanoyl)piperazin-2-one]	51			0	0	0	0	0		0.91	49	30	*512 ms	*903 ms	*0.40	−64	−78
